Values quoted from earlier work in US20070196500A1, “Composition for oral administration of tamsulosin hydrochloride and controlled release granule formulation comprising same” (priority 2004, published 2007).
Counter-ions that a name gives are not always drawn.

water-solubility: low water-solubility
SMILES: CCOc1ccccc1OCCN[C@H](C)Cc1ccc(OC)c(S(N)(=O)=O)c1 [Tamsulosin hydrochloride, tamsulosin hydrochloride]
